Experiments:
[1] = tested on: ECHCG; test: greenhouse pre-emergence herbicidal test; assay type: in vivo, Echinocloa crus-galli; conditions: pre-emergence method, scale from 0 to 100
Text: (§1) The seeds of the test plants were sown separately for each species. For the pre-emergence treatment, the active ingredients, which had been suspended or emulsified in water, were applied directly after sowing by means of finely distributing nozzles. The containers were irrigated gently to promote germination and growth and subsequently covered with transparent plastic hoods until the plants had rooted. This cover caused uniform germination of the test plants, unless this had been impaired by the active ingredients. Depending on the species, the plants were kept at 10-25° C. or 20-35° C., respectively. The test period extended over 2 to 4 weeks. During this time, the plants were tended, and their response to the individual treatments was evaluated. Evaluation was carried out using a scale from 0 to 100. 100 means no emergence of the plants, or complete destruction of at least the aerial moieties, and 0 means no damage, or normal course of growth. […] The plants used in the greenhouse experiments were of the following species: [table]

[2] = tested on: APESV; test: greenhouse pre-emergence herbicidal test; assay type: in vivo, Apera spica-venti; conditions: pre-emergence method, scale from 0 to 100
Text: as §1

[3] = tested on: ECHCG; test: greenhouse post-emergence herbicidal test; assay type: in vivo, Echinocloa crus-galli; conditions: post-emergence method, scale from 0 to 100
Text: (§2) The seeds of the test plants were sown separately for each species. For the post-emergence treatment, the test plants were first grown to a height of 3 to 15 cm, depending on the plant habit, and only then treated with the active ingredients which had been suspended or emulsified in water. For this purpose, the test plants were either sown directly and grown in the same containers, or they were first grown separately as seedlings and transplanted into the test containers a few days prior to treatment. Depending on the species, the plants were kept at 10-25° C. or 20-35° C., respectively. The test period extended over 2 to 4 weeks. During this time, the plants were tended, and their response to the individual treatments was evaluated. Evaluation was carried out using a scale from 0 to 100. 100 means no emergence of the plants, or complete destruction of at least the aerial moieties, and 0 means no damage, or normal course of growth. […] The plants used in the greenhouse experiments were of the following species: [table]

[4] = tested on: ALOMY; test: greenhouse post-emergence herbicidal test; assay type: in vivo, Alopercurus myosuroides; conditions: post-emergence method, scale from 0 to 100
Text: as §2

Row | Structure (SMILES) | herbicidal activity against ECHCG ([1]; application rate 1000 g/ha) | herbicidal activity against APESV ([2]; application rate 1000 g/ha) | also measured
1 | CCc1ncc(-c2cc(C)ccc2Cl)c(C(=O)O)n1 [example 7] | very good (a very good herbicidal activity is given at values of at least 85) | very good (a very good herbicidal activity is given at values of at least 85) | 
2 | CCc1ncc(-c2cc(F)ccc2C)c(C(=O)O)n1 [example 10] |  |  | herbicidal activity against ECHCG ([1]; application rate 500 g/ha): very good (a very good herbicidal activity is given at values of at least 85); herbicidal activity against APESV ([2]; application rate 500 g/ha): very good (a very good herbicidal activity is given at values of at least 85)
3 | CCc1ncc(-c2ccccc2Cl)c(C(=O)OC)n1 [example 19] | very good (a very good herbicidal activity is given at values of at least 85) | very good (a very good herbicidal activity is given at values of at least 85) | 
4 | CCc1ncc(-c2cc(C)ccc2Cl)c(C(=O)OC)n1 [example 20] | very good (a very good herbicidal activity is given at values of at least 85) | very good (a very good herbicidal activity is given at values of at least 85) | herbicidal activity against ECHCG ([3]; application rate 1000 g/ha): good (A good herbicidal activity is given at values of at least 70)
5 | CCc1ncc(-c2cc(Cl)ccc2C)c(C(=O)OC)n1 [example 22] | good (A good herbicidal activity is given at values of at least 70) | good (A good herbicidal activity is given at values of at least 70) | 
6 | CCc1ncc(-c2cc(C)ccc2C)c(C(=O)OC)n1 [example 23] | very good (a very good herbicidal activity is given at values of at least 85) | very good (a very good herbicidal activity is given at values of at least 85) | 
7 | COC(=O)c1nc(C(C)C)ncc1-c1cc(C)ccc1C [example 38] | very good (a very good herbicidal activity is given at values of at least 85) | good (A good herbicidal activity is given at values of at least 70) | 
8 | COc1ncc(-c2ccccc2C)c(C(=O)O)n1 [example 52] |  |  | herbicidal activity against ECHCG ([1]; application rate 2000 g/ha): good (A good herbicidal activity is given at values of at least 70); herbicidal activity against ALOMY ([4]; application rate 2000 g/ha): good (A good herbicidal activity is given at values of at least 70); herbicidal activity against APESV ([2]; application rate 2000 g/ha): very good (a very good herbicidal activity is given at values of at least 85)
9 | COc1ncc(-c2ccc(C)cc2C)c(C(=O)O)n1 [example 57] | very good (a very good herbicidal activity is given at values of at least 85) | very good (a very good herbicidal activity is given at values of at least 85) | 
10 | COC(=O)c1nc(OC)ncc1-c1cc(F)ccc1C [example 62] | good (A good herbicidal activity is given at values of at least 70) | very good (a very good herbicidal activity is given at values of at least 85) | 
11 | COc1ccc(F)c(-c2cnc(SC)nc2C(=O)O)c1 [example 83] |  |  | herbicidal activity against ECHCG ([3]; application rate 2000 g/ha): good (A good herbicidal activity is given at values of at least 70)
12 | COc1ccc(-c2cnc(SC)nc2C(=O)O)c(C)c1 [example 100] |  |  | herbicidal activity against ECHCG ([3]; application rate 2000 g/ha): good (A good herbicidal activity is given at values of at least 70)
13 | O=C(O)c1nc(C2CC2)ncc1-c1cc(Br)ccc1F [example 135] |  | very good (a very good herbicidal activity is given at values of at least 85) | herbicidal activity against ALOMY ([4]; application rate 1000 g/ha): herbicidal activity
14 | COc1ccc(Br)c(-c2cnc(C3CC3)nc2C(=O)O)c1 [example 153] |  | very good (a very good herbicidal activity is given at values of at least 85) | herbicidal activity against ECHCG ([3]; application rate 1000 g/ha): very good (a very good herbicidal activity is given at values of at least 85)
15 | O=C(O)c1nc(C2CC2)ncc1-c1ccccc1[N+](=O)[O-] [example 160] | very good (a very good herbicidal activity is given at values of at least 85) | very good (a very good herbicidal activity is given at values of at least 85) | herbicidal activity against ECHCG ([3]; application rate 1000 g/ha): very good (a very good herbicidal activity is given at values of at least 85)
16 | CC(C)c1ccccc1-c1cnc(C2CC2)nc1C(=O)O [example 175] | very good (a very good herbicidal activity is given at values of at least 85) | very good (a very good herbicidal activity is given at values of at least 85) | 
17 | COc1ccccc1-c1cnc(C2CC2)nc1C(=O)O [example 177] | very good (a very good herbicidal activity is given at values of at least 85) | very good (a very good herbicidal activity is given at values of at least 85) | herbicidal activity against ECHCG ([3]; application rate 1000 g/ha): good (A good herbicidal activity is given at values of at least 70)
18 | COc1ccc(OC)c(-c2cnc(C3CC3)nc2C(=O)O)c1 [example 179] |  |  | herbicidal activity against APESV ([2]; application rate 2000 g/ha): very good (a very good herbicidal activity is given at values of at least 85); herbicidal activity against ECHCG ([3]; application rate 2000 g/ha): very good (a very good herbicidal activity is given at values of at least 85)
19 | COCOc1ccccc1-c1cnc(C2CC2)nc1C(=O)O [example 180] | very good (a very good herbicidal activity is given at values of at least 85) | very good (a very good herbicidal activity is given at values of at least 85) | herbicidal activity against ECHCG ([3]; application rate 1000 g/ha): very good (a very good herbicidal activity is given at values of at least 85)
20 | C=Cc1ccccc1-c1cnc(C2CC2)nc1C(=O)O [example 183] |  |  | herbicidal activity against ECHCG ([1]; application rate 500 g/ha): very good (a very good herbicidal activity is given at values of at least 85); herbicidal activity against APESV ([2]; application rate 500 g/ha): very good (a very good herbicidal activity is given at values of at least 85)
21 | O=C(O)c1nc(C2CC2)ncc1-c1ccccc1C1CC1 [example 187] | very good (a very good herbicidal activity is given at values of at least 85) | very good (a very good herbicidal activity is given at values of at least 85) | herbicidal activity against ECHCG ([3]; application rate 1000 g/ha): very good (a very good herbicidal activity is given at values of at least 85)
22 | COC(=O)c1nc(C2CC2)ncc1-c1cc(C)ccc1C [example 228] |  |  | herbicidal activity against ALOMY ([4]; application rate 2000 g/ha): very good (a very good herbicidal activity is given at values of at least 85); herbicidal activity against APESV ([2]; application rate 2000 g/ha): very good (a very good herbicidal activity is given at values of at least 85); herbicidal activity against ECHCG ([3]; application rate 2000 g/ha): very good (a very good herbicidal activity is given at values of at least 85)
23 | COC(=O)c1nc(C2CC2)ncc1-c1ccc(OC)cc1Cl [example 294] |  |  | herbicidal activity against ECHCG ([3]; application rate 1000 g/ha): good (A good herbicidal activity is given at values of at least 70)
24 | COc1ccc(-c2cnc(C3CC3)nc2C(=O)O)c(Cl)c1 [example 296] |  | very good (a very good herbicidal activity is given at values of at least 85) | 
25 | COc1ccc(-c2cnc(C3CC3)nc2C(=O)O)c(F)c1 [example 297] |  | very good (a very good herbicidal activity is given at values of at least 85) | 
26 | COc1cc(F)ccc1-c1cnc(C2CC2)nc1C(=O)O [example 301] | very good (a very good herbicidal activity is given at values of at least 85) | good (A good herbicidal activity is given at values of at least 70) | 
